{"source": "patent US20230160016A1", "about": "“METHODS OF SELECTING A TREATMENT FOR CANCER PATIENTS” (NOVARTIS AG, priority 2017, published 2023)", "system": "HR-positive, HER2-negative, advanced breast cancer", "assay": "MONALEESA-2: PFS subgroup analysis by 2-gene signature (CDKN2A and E2F3) score", "assay_type": "in vivo, human", "conditions": "for Events: PFS events, median cut-off, both arms plus letrozole; for HR Across ARMCD: PFS, ribociclib arm vs PBO arm, both plus letrozole", "method": "The patient population consisted of postmenopausal women with HR-positive, HER2-negative, advanced breast cancer, who had previously received no prior therapy for their advanced breast cancer.\nArm A: Ribociclib (600 mg once daily, days 1-21 of a 28-day cycle)+letrozole (2.5 mg once daily, days 1-28 of a 28-day cycle).\nArm B: Placebo (once daily, days 1-21 of a 28-day cycle)+letrozole (2.5 mg once daily days 1-28 of a 28-day cycle continuously).\nPFS was defined as the time from the date of randomization to the date of first documented disease progression or death due to any cause. Discontinuation for non-RECIST progression was not counted as a PFS event. If a patient started other anti-neoplastic therapy or had two or more missing tumour assessments, PFS was censored at the last adequate tumour assessment, regardless of subsequent events.\nA Cox Proportional Hazards model was fitted with treatment, liver/lung metastasis which is the study stratification factor, effects of the 16 genes, including CCNA2, CCND1, CCND2, CCND3, CCNE1, CDK2, CDK4, CDK6, CDKN1A, CDKN2A, CDKN2B, CDKN2C, E2F1, E2F3, RB1, and TFDP1, and gene by treatment interactions. […] A set of genes (CDKN2A and E2F3) with significant gene by treatment interactions in the model were identified through backward model selection. Signature scores of all samples were computed as the weighted sum of the gene expression values, where weights were the regression coefficients of respective gene by treatment interactions in the Cox Proportional Hazards model. Patients were classified into high and low subgroups using median signature score as the cut-off. Median PFS and hazard ratio together with 95% confidence intervals were computed for each patient subgroup.\nResult: Using backward model selection, a 2-gene signature (CDKN2A and E2F3) was derived. FIG. 1Q and table 4 are subgroup analysis results, high- and low-gene signature expression groups are defined by median signature score as cut-off.", "data": [{"substance": "Ribociclib", "values": [{"measurement": "Events", "setting": "high 2-gene signature (CDKN2A and E2F3) score", "value": 30}, {"measurement": "Events", "setting": "low 2-gene signature (CDKN2A and E2F3) score", "value": 28}, {"measurement": "HR Across ARMCD", "setting": "high 2-gene signature score", "value": "0.73 (0.46-1.16)"}, {"measurement": "HR Across ARMCD", "setting": "low 2-gene signature score", "value": "0.42 (0.26-0.66)"}]}]}
